Data published in PubChem BioAssay AID248 (DTP/NCI, 2004).
Several values for one entry are separate records, joined by “and”; a condition that tells them apart may be missing. Equal entries are not always repeated. Toxic doses and inconclusive results are not listed.

Tested on: L1210 leukemia ip in BDF1 mice, survival T/C
Assay: NCI In Vivo Anticancer Drug Screen. Data for tumor model L1210 Leukemia (intraperitoneal) in B6D2F1 (BDF1) mice
Settings: endpoint: mean survival time, higher = longer survival
Summary of the method: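 Survival endpoint. Drug-treated group vs vehicle group, expressed as T divided by C. Tumor passaged by transplantation.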

[1] = dose: 200.0 mg/kg/injection, schedule: Q01DX001 (ip), vehicle: saline

For `C1=Nc2ccccc2/C1=C/c1ccc2c(c1)OCO2`, the T/C (dose: 100.0 mg/kg/injection, schedule: Q01DX009 (ip), vehicle: carboxymethylcellulose (CMC)) was 97 % of control and 102 % of control, the T/C (dose: 100.0 mg/kg/injection, schedule: Q04DX002 (ip), vehicle: carboxymethylcellulose (CMC)) was 93 % of control and 102 % of control and the T/C (dose: 100.0 mg/kg/injection, schedule: Q04DX003 (ip), vehicle: carboxymethylcellulose (CMC)) was 98 % of control. For the same compound, the T/C (dose: 200.0 mg/kg/injection, schedule: Q01DX009 (ip), vehicle: carboxymethylcellulose (CMC)) was 96 % of control and 87 % of control, the T/C (dose: 200.0 mg/kg/injection, schedule: Q04DX002 (ip), vehicle: carboxymethylcellulose (CMC)) was 93 % of control and 98 % of control and the T/C (dose: 200.0 mg/kg/injection, schedule: Q04DX003 (ip), vehicle: carboxymethylcellulose (CMC)) was 93 % of control. For the same compound, the T/C (dose: 400.0 mg/kg/injection, schedule: Q01DX009 (ip), vehicle: carboxymethylcellulose (CMC)) was 93 % of control and 94 % of control, the T/C (dose: 400.0 mg/kg/injection, schedule: Q04DX002 (ip), vehicle: carboxymethylcellulose (CMC)) was 104 % of control and 107 % of control and the T/C (dose: 400.0 mg/kg/injection, schedule: Q04DX003 (ip), vehicle: carboxymethylcellulose (CMC)) was 96 % of control.
For `O=NN(CCCl)C(=O)NC1CCC(Cl)CC1` (stereo not drawn), the T/C (dose: 12.0 mg/kg/injection, schedule: Q01DX001 (ip), vehicle: Klucel (hydroxypropylcellulose) (HPC)) was 123 % of control, the T/C (dose: 21.0 mg/kg/injection, schedule: Q01DX001 (ip), vehicle: Klucel (hydroxypropylcellulose) (HPC)) was 217 % of control and the T/C (dose: 21.0 mg/kg/injection, schedule: Q01DX001 (ip), vehicle: carboxymethylcellulose (CMC)) was 182 % of control. The T/C (dose: 26.0 mg/kg/injection, schedule: Q01DX001 (ip), vehicle: Klucel (hydroxypropylcellulose) (HPC)) was 303 % of control, the T/C (dose: 34.0 mg/kg/injection, schedule: Q01DX001 (ip), vehicle: Klucel (hydroxypropylcellulose) (HPC)) was 387 % of control and the T/C (dose: 34.0 mg/kg/injection, schedule: Q01DX001 (ip), vehicle: carboxymethylcellulose (CMC)) was 346 % of control. The T/C (dose: 40.0 mg/kg/injection, schedule: Q01DX001 (ip), vehicle: Klucel (hydroxypropylcellulose) (HPC)) was 291 % of control, the T/C (dose: 49.0 mg/kg/injection, schedule: Q01DX001 (ip), vehicle: Klucel (hydroxypropylcellulose) (HPC)) was 460 % of control and the T/C (dose: 49.0 mg/kg/injection, schedule: Q01DX001 (ip), vehicle: carboxymethylcellulose (CMC)) was 469 % of control. For the same compound, the T/C (dose: 60.0 mg/kg/injection, schedule: Q01DX001 (ip), vehicle: Klucel (hydroxypropylcellulose) (HPC)) was 275 % of control, the T/C (dose: 74.0 mg/kg/injection, schedule: Q01DX001 (ip), vehicle: Klucel (hydroxypropylcellulose) (HPC)) was 439 % of control and the T/C (dose: 74.0 mg/kg/injection, schedule: Q01DX001 (ip), vehicle: carboxymethylcellulose (CMC)) was 469 % of control. The T/C (dose: 90.0 mg/kg/injection, schedule: Q01DX001 (ip), vehicle: Klucel (hydroxypropylcellulose) (HPC)) was 91 % of control, the T/C (dose: 110.0 mg/kg/injection, schedule: Q01DX001 (ip), vehicle: Klucel (hydroxypropylcellulose) (HPC)) was 218 % of control and the T/C (dose: 110.0 mg/kg/injection, schedule: Q01DX001 (ip), vehicle: carboxymethylcellulose (CMC)) was 153 % of control. The T/C (dose: 133.0 mg/kg/injection, schedule: Q01DX001 (ip), vehicle: Klucel (hydroxypropylcellulose) (HPC)) was 98 % of control.
With `O=C(Nc1ccccc1C(F)(F)F)c1cccc(Cl)c1` the T/C (dose: 50.0 mg/kg/injection, schedule: Q01DX009 (ip), vehicle: saline + alcohol) was 89 % of control, the T/C (dose: 100.0 mg/kg/injection, schedule: Q01DX009 (ip), vehicle: saline + alcohol) was 101 % of control and the T/C (dose: 200.0 mg/kg/injection, schedule: Q01DX009 (ip), vehicle: saline + alcohol) was 94 % of control.
In the case of `CCN=C(CCl)NS(=O)(=O)c1ccc(C)cc1`, the T/C (dose: 25.0 mg/kg/injection, schedule: Q04DX002 (ip), vehicle: saline with Tween-80) is reported as 113 % of control, the T/C (dose: 50.0 mg/kg/injection, schedule: Q04DX002 (ip), vehicle: saline with Tween-80) is reported as 109 % of control and the T/C (dose: 100.0 mg/kg/injection, schedule: Q04DX002 (ip), vehicle: saline with Tween-80) is reported as 109 % of control.
In the case of `O=C(O)C1CCCN1[N+](=O)[O-]` (stereo not drawn), the T/C (dose: 100.0 mg/kg/injection, schedule: Q01DX001 (ip), vehicle: saline) is reported as 100 % of control, the T/C [1] is reported as 104 % of control and the T/C (dose: 400.0 mg/kg/injection, schedule: Q01DX001 (ip), vehicle: saline) is reported as 110 % of control.
With `Cc1cccc(NC(=O)Nc2cccc(Cl)c2)c1C` the T/C (dose: 100.0 mg/kg/injection, schedule: Q01DX009 (ip), vehicle: Klucel (hydroxypropylcellulose) (HPC)) was 91 % of control, the T/C (dose: 100.0 mg/kg/injection, schedule: Q04DX003 (ip), vehicle: Klucel (hydroxypropylcellulose) (HPC)) was 90 % of control and the T/C (dose: 200.0 mg/kg/injection, schedule: Q01DX009 (ip), vehicle: Klucel (hydroxypropylcellulose) (HPC)) was 100 % of control. The T/C (dose: 200.0 mg/kg/injection, schedule: Q04DX003 (ip), vehicle: Klucel (hydroxypropylcellulose) (HPC)) was 90 % of control, the T/C (dose: 400.0 mg/kg/injection, schedule: Q01DX009 (ip), vehicle: Klucel (hydroxypropylcellulose) (HPC)) was 93 % of control and the T/C (dose: 400.0 mg/kg/injection, schedule: Q04DX003 (ip), vehicle: Klucel (hydroxypropylcellulose) (HPC)) was 89 % of control.
For `CC1(Br)Cc2ccccc2C1=O` (stereo not drawn), the T/C (dose: 100.0 mg/kg/injection, schedule: Q04DX003 (ip), vehicle: saline with Tween-80) was 107 % of control, the T/C (dose: 200.0 mg/kg/injection, schedule: Q04DX003 (ip), vehicle: saline with Tween-80) was 94 % of control and the T/C (dose: 400.0 mg/kg/injection, schedule: Q04DX003 (ip), vehicle: saline with Tween-80) was 103 % of control.
For `CCCCCCCCCCCCC(CC(=O)O)C(=O)N(CCO)CCO` (stereo not drawn), the T/C (dose: 12.5 mg/kg/injection, schedule: Q01DX001 (ip), vehicle: saline) was 97 % of control, the T/C (dose: 25.0 mg/kg/injection, schedule: Q01DX001 (ip), vehicle: saline) was 94 % of control and the T/C (dose: 50.0 mg/kg/injection, schedule: Q01DX001 (ip), vehicle: saline) was 91 % of control. The T/C [1] was 97 % of control.
With `OC(c1ccccc1)C1(O)CC2CCC1C2` (stereo not drawn) the T/C (dose: 6.25 mg/kg/injection, schedule: Q01DX001 (ip), vehicle: saline) was 96 % of control, the T/C (dose: 125.0 mg/kg/injection, schedule: Q01DX001 (ip), vehicle: saline) was 100 % of control and the T/C (dose: 250.0 mg/kg/injection, schedule: Q01DX001 (ip), vehicle: saline) was 98 % of control.
With `COC1=C2C=[N+](C)C3C(=C2C=CC1OC)Cc1cc2c(cc13)OCO2` (stereo not drawn) the T/C (dose: 50.0 mg/kg/injection, schedule: Q01DX001 (ip), vehicle: carboxymethylcellulose (CMC)) was 104 % of control, the T/C (dose: 100.0 mg/kg/injection, schedule: Q01DX001 (ip), vehicle: carboxymethylcellulose (CMC)) was 107 % of control and the T/C (dose: 200.0 mg/kg/injection, schedule: Q01DX001 (ip), vehicle: carboxymethylcellulose (CMC)) was 102 % of control.
